The source of these data is patent publication US9573904B2, “Aromatic compound and use thereof” (Sumitomo Chemical Company, Limited, priority 2013, dated 2017).

Holding throughout (type): in vivo
Test [1] concerns cucumber anthracnose fungus (Colletotrichum lagenarium). Description: Test Example 9 and Comparative Test Example: cucumber anthracnose control, foliar spray. To be noted: 200 ppm spray on cucumber (SAGAMI HANJIRO); inoculated one day after spraying.
Test [2] has as its system wheat rust fungus (Puccinia recondita). Description: Test Example 2: wheat rust control, foliar spray. To be noted: 500 ppm spray on wheat (SHIROGANE).
For test [3], the system named is cucumber target leaf spot fungus (Corynespora cassiicola). Description: Test Example 10: cucumber target leaf spot control, foliar spray. As to conditions: 200 ppm spray on cucumber (SAGAMI HANJIRO).

Some results are limits rather than exact numbers.

As to `COC(=O)Oc1ccccc1COc1ccc(C)cc1C` [2-[(2,4-dimethylphenoxy)methyl]phenyl=methyl=carbonate], in test [1], the “area of lesion on the treated plant relative to that on an untreated plant” value was at least 70%.

`CNC(=O)Oc1c(C)cccc1COc1ccc(-c2nn(C)c(Cl)c2C)cc1C` [present compound 6]: the “area of lesion on the treated plant relative to that on an untreated plant” value in test [2] was at most 30%.

In the case of `CNC(=O)Oc1cccc(C)c1COc1ccc(-c2nn(C)c(Cl)c2C)cc1C` [present compound 7], the “area of lesion on the treated plant relative to that on an untreated plant” value in test [3] is on record as at most 30%.
